Results published in patent publication US20100021427A1, “Use of Antiviral Peptides For Treatment of Infections Caused by Drug-Resistant HIV” (Tianjin FusoGen Pharmaceuticals, Inc., priority 2008, published 2010).

Tests used:
N36 [1] = molecular target: T1, N36 (Human immunodeficiency virus type 1 group M subtype B, UniProt P04578); assay: Native polyacrylamide gel electrophoresis (N-PAGE), 6-HB formation; format: binding, HIV; details: 40 μM, 37° C. 30 min
T1 construct: protease-resistant N- and C-peptides from gp41
Procedure: Native polyacrylamide gel electrophoresis (N-PAGE) was carried out to determine the 6-HB formation between the N- and C-peptides using the described previously (Liu, S., et al. PEPTIDES 2003, 24:1303-1313). […] The mixture was loaded onto a 10×1.0-cm precast 18% Tris-glycine gels (Invitrogen, Carlsbad, Calif.) at 25 μL/per well with an equal volume of Tris-glycine native sample buffer (Invitrogen). Gel electrophoresis was carried out with 125 V constant voltage at room temperature for 2 h. The gel was then stained with Coomassie blue and imaged with a FluorChem 8800 Imaging System (Alpha Innotech Corp., San Leandro, Calif.).

92TH009 (clade E, R5) = assay: Primary HIV-1 isolate infection of PBMC, p24 ELISA; format: cell-based; details: p24 production, 7 days post infection
Procedure: (§1) The inhibitory activity of FS-01 against primary HIV-1 isolates was determined as previously described in (Jiang, S., et al. ANTIMICROB. AGENTS CHEMOTHER. 2004; 48: 4349-4359. The peripheral blood mononuclear cells (PBMC) were isolated from the blood of healthy donors using a standard density gradient (Histopaque-1077, Sigma) centrifugation. The cells were plated in 75-cm plastic flasks and incubated at 37° C. for 2 h. The nonadherent cells were collected and resuspended at 5×10^5/mL in RPMI 1640 medium containing 10% FBS, 5 μg of phytohemagglutinin (PHA)/mL, and 100 U of interleukin-2/mL, followed by incubation at 37° C. for 3 days. The PHA-stimulated cells were infected with the corresponding primary HIV-1 isolates at a multiplicity of infection (MOI) of 0.01 in the absence or presence of FS-01 at graded concentrations. Culture media were changed every 3 days. The supernatants were collected 7 days post infection and tested for p24 antigen by ELISA. The percent inhibition of p24 production and IC50/IC90 values were calculated.

94UG103 (clade A, X4R5) = assay: Primary HIV-1 isolate infection of PBMC, p24 ELISA; format: cell-based; details: p24 production, 7 days post infection
Procedure: as §1

93BR020 (clade F, X4R5) = assay: Primary HIV-1 isolate infection of PBMC, p24 ELISA; format: cell-based; details: p24 production, 7 days post infection
Procedure: as §1

92UG001 (clade D, X4R5) = assay: Primary HIV-1 isolate infection of PBMC, p24 ELISA; format: cell-based; details: p24 production, 7 days post infection
Procedure: as §1

92US657 (clade B, R5) = assay: Primary HIV-1 isolate infection of PBMC, p24 ELISA; format: cell-based; details: p24 production, 7 days post infection
Procedure: as §1

93IN101 (clade C, R5) = assay: Primary HIV-1 isolate infection of PBMC, p24 ELISA; format: cell-based; details: p24 production, 7 days post infection
Procedure: as §1

NL4-3 (N42S) = format: cell-based, HIV-1; details: T20-sensitive (S) virus, MT-2 cells, p24, fourth day; read-out: IC50 (Mean ± SD)
Procedure: (§2) Two T20-sensitive and five T20-resistant strains with well defined genetic mutations conferring the resistance were used in this experiment (Rimsky, L. T., et al. J.VIROL. 1998; 72: 986-993). Briefly, 1×10^4 MT-2 cells were infected with HIV-1 isolates at 100 TCID50 (50% tissue culture infective dose) in 200 μl RPMI 1640 medium containing 10% FBS in the presence or absence of FS-01 at graded concentrations overnight. Then the culture supernatants were removed and fresh media without FS-01 were added. On the fourth day post-infection, 100 μl of culture supernatants were collected from each well, mixed with equal volumes of 5% Triton X-100 and assayed for p24 antigen by ELISA.

NL4-3 (V38A/N42D) = format: cell-based, HIV-1; details: T20-resistant (R) virus, MT-2 cells, p24, fourth day; read-out: IC50 (Mean ± SD)
Procedure: as §2

NL4-3 (V38A/N42T) = format: cell-based, HIV-1; details: T20-resistant (R) virus, MT-2 cells, p24, fourth day; read-out: IC50 (Mean ± SD)
Procedure: as §2

NL4-3 (V38A) = format: cell-based, HIV-1; details: T20-resistant (R) virus, MT-2 cells, p24, fourth day; read-out: IC50 (Mean ± SD)
Procedure: as §2

NL4-3 (parental) = format: cell-based, HIV-1; details: T20-sensitive (S) virus, MT-2 cells, p24, fourth day; read-out: IC50 (Mean ± SD)
Procedure: as §2

NL4-3 (N42T/N43K) = format: cell-based, HIV-1; details: T20-resistant (R) virus, MT-2 cells, p24, fourth day; read-out: IC50 (Mean ± SD)
Procedure: as §2

NL4-3 (V38E/N42S) = format: cell-based, HIV-1; details: T20-resistant (R) virus, MT-2 cells, p24, fourth day; read-out: IC50 (Mean ± SD)
Procedure: as §2

[2] = molecular target: T2, 6-HB between C34-biotin and N36 (Human immunodeficiency virus type 1 group M subtype B, UniProt P04578); assay: ELISA (mAb NC-1) of inhibition of 6-helix bundle formation; format: biochemical, HIV
T2 construct: protease-resistant N- and C-peptides from gp41
Procedure: A 96-well polystyrene plate (Costar, Corning Inc., Corning, N.Y.) was coated with a 6-HB-specific monoclonal antibody NC-1 IgG (4 μg/mL in 0.1 M Tris, pH 8.8). […] The mixture was then added to the NC-1-coated plate, followed by incubation at room temperature for 30 min and washing with a washing buffer (PBS containing 0.1 % Tween 20) three times. Then streptavidin-labeled horseradish peroxidase (Invitrogen) and the substrate 3,3′,5,5′-tetramethylbenzidine (Sigma) were added sequentially. Absorbance at 450 nm (A450) was measured using an ELISA reader (Ultra 384, Tecan, Research Triangle Park, N.C.). The percent inhibition by the peptides and the IC50 values were calculated as previously described (Jiang, S. B., et al J.EXP.MED. 1991; 174: 1557-1563).

[3] = test system: HIV-1IIIB-mediated cell-cell fusion (H9/HIV-1IIIB-infected cells with MT-2 cells); assay: Dye transfer assay of HIV-1 mediated cell-cell fusion; format: cell-based
Procedure: (§3) A dye transfer assay was used for detection of HIV-1 mediated cell-cell fusion as previously described in (Jiang, S., et al. Antimicrob.Agents Chemother. 2004; 48: 4349-4359. In brief, H9/HIV-1IIIB-infected cells were labeled with a fluorescent reagent, Calcein-AM (Molecular Probes, Inc., Eugene, OR) and then incubated with MT-2 cells (ratio =1:5) in 96-well plates at 37° C. for 2 h in the presence or absence of peptides. The fused and unfused calcein-labeled HIV-1-infected cells were counted under an inverted fluorescence microscope (Zeiss, Germany) with an eyepiece micrometer disc. The inhibition percent of cell-cell fusion and the IC50 values were calculated as described. […] The inhibitory activity of FS-01 on HIV-1-mediated infection was conducted too.

HIV-1IIIB = assay: HIV-1IIIB-mediated infection of MT-2 cells; format: cell-based
Procedure: as §3
as §2, with “On the fourth day post-infection, 100 μl of culture supernatants were collected from each well, mixed with equal volumes of 5% Triton X-100 and assayed for p24 antigen by ELISA.” left out

POPC LUVs [4] = assay: Isothermal titration calorimetry (ITC), peptide-lipid binding; details: LUVs injected into peptide solution
Procedure: (§4) So, the POPC LUV liposome system was employing to investigate the binding activity of FS-01 to lipid membranes. Large unilamellar vesicles (LUVs) of 1-palmitoyl-2-oleoyl-sn-glycero-3-phosphocholine (POPC) liposome were prepared as previously described (Liu, S., et al. J.BIOL.CHEM. 2007; 282: 9612-9620). Briefly, 20 mg of POPC stock solution was dried under a stream of nitrogen and stored in vacuum overnight to completely remove trace amounts of organic solvent. The dried lipid film was suspended by vortexing in 2 mL PBS buffer. The resultant multilamellar vesicle suspension was freeze-thawed for 5 cycles and then successively extruded through two stacked polycarbonate filters (0.1 μm) 13 times using an Avanti miniextruder.
Solutions were degassed under vacuum prior to use. LUVs of POPC were injected into the chamber containing a peptide solution or buffer only (as a control). The heats generated in control experiments by injecting lipid vesicles into buffer without a peptide were subtracted from the heats produced in the corresponding peptide-lipid binding experiments. Data acquisition and analyses were performed using MicroCal's Origin software (Version 7.0).

N36 [5] = molecular target: T1, N36; assay: Circular dichroism (CD) spectroscopy and thermal denaturation of peptide/N36 mixtures; format: binding, HIV
Procedure: Circular dichroism (CD) spectroscopy was performed following the method previously described in He, Y., et al. J.BIOL.CHEM. 2007; 282: 25631-25639. […] The final peptide concentration was 10 μM in 50 mM sodium phosphate and 150 mM NaCl, pH 7.2. The N-, C-peptides as well as FS-01 by itself was also tested. CD spectra of these individual peptides and peptide mixtures were acquired on Jasco spectropolarimeter (Model J-715, Jasco Inc., Japan) at room temperature using a 5.0-nm band with, 0.1-nm resolution, 0.1-cm path length, 4.0-s response time, and a 50-nm/min scanning speed. The spectra were corrected by subtraction of a blank corresponding to the solvent. The a-helical content was calculated from the CD signal by dividing the mean residue ellipticity at 222 nm by the value expected for 100% helix formation (−33,000 degrees cm^2 dmol^−1) according to existing literature (Shu, W., et al. BIOCHEMISTRY 2000; 39: 1634-1642; Chen, Y. H., et al. BIOCHEMISTRY 1974; 13: 3350-3359). Thermal denaturation was monitored at 222 nm by applying a thennal gradient of 2° C./min in the range of 4-98° C. To determine the reversibility, the peptide mixtures were then cooled to 4° C. and kept in the CD chamber at 4° C. for 30 min, followed by monitoring of thermal denaturation as described above. The melting curve was smoothened, and the midpoint of the thermal unfolding transition (Tm) values was calculated using Jasco software utilities.

POPC LUVs [6] = assay: Tryptophan fluorescence spectroscopy, peptide-lipid interaction; format: binding; details: peptide 10 μM, POPC LUVs 2 mM, excitation 295 nm
Procedure: as §4
Spectra were baseline-corrected by subtracting blank spectra of the corresponding solutions without peptide.

T1 sequence (P04578 546-581): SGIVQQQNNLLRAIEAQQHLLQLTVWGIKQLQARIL
T2 sequence (P04578 546-581): as above

For “Ac-SWETWEREIENYTRQIYRILEESQEQQDRNERDLLE-NH2 [FS-01]”, the “6-HB formation with N36 (up-shift of peptide band)” value (N36 [1]) was “able to form 6-HB with N36”, the IC50 (92TH009 (clade E, R5); read-out: IC50 (Mean ± SD)) was 210 ± 9.91 nM and the IC90 (92TH009 (clade E, R5); read-out: IC90 (Mean ± SD)) was 619 ± 39 nM. For the same substance, the IC50 (94UG103 (clade A, X4R5); read-out: IC50 (Mean ± SD)) was 3.94 ± 1.29 nM, the IC90 (94UG103 (clade A, X4R5); read-out: IC90 (Mean ± SD)) was 7.43 ± 2.16 nM and the IC50 (93BR020 (clade F, X4R5); read-out: IC50 (Mean ± SD)) was 12.5 ± 6.76 nM. It also gave an IC90 (93BR020 (clade F, X4R5); read-out: IC90 (Mean ± SD)) of 71.6 ± 28.5 nM, an IC50 (92UG001 (clade D, X4R5); read-out: IC50 (Mean ± SD)) of 11.9 ± 3.01 nM and an IC90 (92UG001 (clade D, X4R5); read-out: IC90 (Mean ± SD)) of 35.7 ± 6.59 nM. It also gave an IC50 (92US657 (clade B, R5); read-out: IC50 (Mean ± SD)) of 27.8 ± 8.66 nM, an IC90 (92US657 (clade B, R5); read-out: IC90 (Mean ± SD)) of 212 ± 84 nM and an IC50 (93IN101 (clade C, R5); read-out: IC50 (Mean ± SD)) of 34.3 ± 3.21 nM. It also gave an IC90 (93IN101 (clade C, R5); read-out: IC90 (Mean ± SD)) of 90.6 ± 6.5 nM, an IC50 (NL4-3 (N42S)) of 2.68 ± 0.87 nM and an IC50 (NL4-3 (V38A/N42D)) of 47.8 ± 4.7 nM. It also gave an IC50 (NL4-3 (V38A/N42T)) of 30.4 ± 4.36 nM, an IC50 (NL4-3 (V38A)) of 3.44 ± 0.23 nM and an IC50 (NL4-3 (parental)) of 12.6 ± 1.18 nM. For the same substance, the IC50 (NL4-3 (N42T/N43K)) was 37.8 ± 15.6 nM, the IC50 (NL4-3 (V38E/N42S)) was 43.5 ± 3.36 nM and the IC50 [2] was 120 nM. The “fold more active than T20 in inhibiting membrane fusion” value [3] was “about 6 fold”, the IC50 ([3]; 37° C. for 2 h, read-out: IC50, inhibition of cell-cell fusion) was 3.6 nM and the “inhibition of HIV-1IIIB-mediated infection of MT-2 cells, compared with T20” value (HIV-1IIIB) was “more potent”. The “binding constant to POPC LUVs” value (POPC LUVs [4]) was “too weak to calculate the binding constant”, the “higher melting temperature of FS-01/N36 complex compared to C34/N36 complex” value (N36 [5]) was 10 °C and the “helical content in the presence of N36” value (N36 [5]; CD at 222 nm, equal molar with N36, 10 μM, pH 7.2) was 93%. The “formation of α-helical complexes with N36 (CD minimum at 208 and 222 nm)” value (N36 [5]; equal molar with N36, 10 μM) was “formation of secondary α-helical structure”, the “melting temperature (Tm) of complex with N36” value (N36 [5]; thermal denaturation monitored at 222 nm) was “about 72 °C” and the “shift of tryptophan fluorescence spectra in POPC LUVs compared to PBS” value (POPC LUVs [6]) was “did not show remarkable fluorescence spectra shift”.
